Molecules are shown by their SMILES.

Broadly, the EC50 is the concentration giving half of the maximal effect. What is called AUC(0-t) is exposure summed from dosing to a finite time, without extrapolation to infinity. In general, Cmax refers to the highest concentration seen after dosing. For orientation: half-life means the time in which the quantity being followed falls by half. A high value points to slow loss.

Data set [1] deals with T1, GLP-1R (Homo sapiens, UniProt P43220). Kind of data set: GLP-1R agonistic activity by One-Lite luciferase assay in HEK293-GLP-1R-luc cells (Example 59). Conditions: 6 h incubation, read-out: cAMP EC50. Format: cell-based. How it is done:
(§1) The agonistic activities of the compounds of the present disclosure on GLP-1R were evaluated by detecting the generation of cAMP.
• (1) Cell line: HEK293-GLP-1R-luc Stable Cell Line (Cobioer, CBP71117); • (2) Culture medium: DMEM+10% FBS (Gibco); • (3) Kit: One-Lite™ kit Luciferase Assay System (Vazyme). 2. Experimental Procedures • (1) HEK293-GLP1R cells were inoculated in a 96-well plate at a density of 30000 cells per well; • (2) 10× working solution of each compound was formulated; • (3) 10 μL of 10× working solution of each compound was added to corresponding well and incubated at 37° C. for 6 h; • (4) 100 μL of One-Lite Luciferase Assay Substrate formulated using One-Lite Luciferase Assay Buffer was added to each well; • (5) The plate was incubated at room temperature for 3 min; • (6) The plate was read by a multimode microplate reader to detect chemiluminescence. 3. Data Analysis • (1) % Activity was calculated by the following formula: % Activity=100−(Signalcmpd−SignalAve-PC)/(SignalAve-VC−SignalAve-PC)×100 • (2) The dose-response curve was plotted to calculate EC50: Y=Bottom+(Top−Bottom)/(1+10^(Log EC50−X)*HillSlope)) • X: log of agonist concentration; Y: Activity. 4. Experimental Results

Data set [2] is described as follows: In vivo pharmacokinetics in rats, oral. Also on record: species or system SD rats. Conditions: for AUC(0-t) / Cmax / half-life: rat, plasma, SD rats, PO, 1 mg/kg. How it is done: The compounds of the present disclosure were formulated with […]+90% 100 mM glycine-64 mM NaOH, and orally administered to fasted SD rats at a dose of 1 mg/kg or 5 mg/kg, respectively. At different time points (0.25, 0.5, 1.0, 2.0, 4.0, 5.0, 6.0, 7.0, 8.0, and 24 h) after administration, about 50 μL of blood samples were collected from veins into anticoagulant tubes containing EDTA-K2, and centrifuged to separate plasma. The plasma concentrations of the compounds were determined by LC-MS/MS. WinNonlin was used to calculate the pharmacokinetic parameters by using the non-compartmental analysis, and the experimental results were listed in Table 9.

Data set [3] concerns the target T1, GLP-1R. Kind of data set: GLP-1R agonistic activity by cAMP detection kit in HEK293-GLP-1R-luc cells (Example 58). In kind it is cell-based. Conditions: 30 min incubation. How it is done: as §1
• (1) Cell line: HEK293-GLP-1R-luc Stable Cell Line (Cobioer, CBP71117); • (2) Culture medium: DMEM+10% FBS (Gibco); • (3) Kit: cAMP detection kit (PerkinElmer). 2. Experimental Procedures • (1) HEK293-GLP1R cells were inoculated in a 384-well plate at a density of 2000 cells per well; • (2) 4× working solution of each compound was formulated; • (3) 5 μL of 4× working solution of each compound was added to corresponding well and incubated at 37° C. for 30 min; • (4) 10 μL of Eu-cAMP tracer diluted with Lysis Buffer (1/50) was added to each well; • (5) 10 μL of Ulight-anti-cAMP diluted with Lysis Buffer (1/150) was added to each well; • (6) The plate was incubated at room temperature for 1 h; • (7) The plate was read by a multimode microplate reader (excitation wavelength: 320 nm; emission wavelength: 665 nm and 620 nm). 3. Data Analysis • (1) % Activity was calculated by the following formula: % Activity=100−(Signalcmpd−SignalAve-PC)/(SignalAve-VC−SignalAve-PC)×100 • (2) The dose-response curve was plotted to calculate EC50: Y=Bottom+(Top−Bottom)/(1+10^(Log EC50−X)*HillSlope)) • X: log of agonist concentration; Y: Activity. 4. Experimental Results

The mark [4] stands for this setting: rats, oral, versus example compound 67 in WO2018056453, in words.

T1 sequence (P43220 24-463): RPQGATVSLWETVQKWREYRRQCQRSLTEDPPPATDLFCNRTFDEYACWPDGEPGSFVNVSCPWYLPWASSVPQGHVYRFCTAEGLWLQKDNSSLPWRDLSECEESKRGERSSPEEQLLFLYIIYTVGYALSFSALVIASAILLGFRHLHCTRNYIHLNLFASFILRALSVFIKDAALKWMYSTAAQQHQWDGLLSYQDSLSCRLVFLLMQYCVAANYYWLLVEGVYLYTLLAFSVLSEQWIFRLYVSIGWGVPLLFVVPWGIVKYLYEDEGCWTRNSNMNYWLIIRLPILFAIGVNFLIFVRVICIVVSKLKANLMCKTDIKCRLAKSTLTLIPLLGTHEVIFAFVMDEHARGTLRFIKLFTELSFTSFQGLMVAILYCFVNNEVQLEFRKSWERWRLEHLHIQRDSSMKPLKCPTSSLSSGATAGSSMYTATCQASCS

Take `Cc1cc(-n2nc3c(c2-n2ccn(-c4ccc5c(cnn5C)c4F)c2=O)[C@H](C)N(C(=O)c2cc4cc([C@H]5CCOC(C)(C)C5)ccc4n2[C@@]2(c4noc(=O)[nH]4)C[C@@H]2C)CC32CC(F)(F)C2)cc(C)c1F` [Compound 180]: the EC50 on GLP-1R [1] was at most 0.02 µM. In data set [2], this compound had an area under the curve AUC(0-t) of 1120 ng·h/mL, a Cmax of 129 ng/mL and a half-life of 6.4 h. As to `Cc1cc(-n2nc3c(c2-n2ccn(-c4ccc5c(cnn5C)c4F)c2=O)[C@H](C)N(C(=O)c2cc4cc([C@H]5CCOC(C)(C)C5)ccc4n2[C@@]2(c4noc(=O)[nH]4)C[C@@H]2C)CC32CCN(C)CC2)cc(C)c1F` [Compound 59], the EC50 on GLP-1R [1] is at most 0.02 µM; on GLP-1R [3] it was at most 0.0001 µM. Take `Cc1cc(-n2nc3c(c2-n2ccn(-c4ccc5c(cnn5C)c4F)c2=O)[C@H](C)N(C(=O)c2cc4cc([C@H]5CCOC(C)(C)C5)ccc4n2[C@@]2(c4noc(=O)[nH]4)C[C@@H]2C)CC32CCNCC2)cc(C)c1F` [Compound 57]: the EC50 at GLP-1R [1] was at most 0.02 µM; on GLP-1R [3] it was at most 0.0001 µM. As for `Cc1cc(-n2nc3c(c2-n2ccn(-c4ccc5c(cnn5C)c4F)c2=O)[C@H](C)N(C(=O)c2cc4cc([C@H]5CCOC(C)(C)C5)ccc4n2[C@@]2(c4noc(=O)[nH]4)C[C@@H]2C)CC32CC2F)cc(C)c1F` (stereo partly shown) [Compound 228], the EC50 at GLP-1R [1] is at most 0.02 µM. In addition, in data set [2], the AUC(0-t) amounted to 2400 ng·h/mL, the Cmax turned out to be 216 ng/mL and the half-life is 13 h. For the same compound, in data set [2] (setting [4]), the “maximum plasma concentration Cmax compared with the control compound” value was “higher” and the “oral exposure AUC compared with the control compound” value is listed as “higher”.

Consider `Cc1cc(-n2nc3c(c2-n2ccn(-c4ccc5c(cnn5C)c4F)c2=O)[C@H](C)N(C(=O)c2cc4cc([C@H]5CCOC(C)(C)C5)ccc4n2[C@@]2(c4noc(=O)[nH]4)C[C@@H]2C)CC32CCN(C(=O)C3CC3)CC2)cc(C)c1F` [Compound 157], for which the EC50 at GLP-1R [1] is at most 0.02 µM. In the case of `Cc1cc(-n2nc3c(c2-n2ccn(-c4ccc5c(cnn5C)c4F)c2=O)[C@H](C)N(C(=O)c2cc4cc([C@H]5CCOC(C)(C)C5)ccc4n2[C@@]2(c4noc(=O)[nH]4)C[C@@H]2C)CC32CN(C=O)C2)cc(C)c1F` [Compound 165], the EC50 at GLP-1R [1] is at most 0.02 µM. As for `Cc1cc(-n2nc3c(c2-n2ccn(-c4ccc5c(cnn5C)c4F)c2=O)[C@H](C)N(C(=O)c2cc4cc([C@H]5CCOC(C)(C)C5)ccc4n2[C@@]2(c4noc(=O)[nH]4)C[C@@H]2C)CC32CC(C)C2)cc(C)c1F` (stereo partly shown) [Compound 219], the EC50 at GLP-1R [1] was at most 0.02 µM. On to `Cc1cc(-n2nc3c(c2-n2ccn(-c4ccc5c(cnn5C)c4F)c2=O)[C@H](C)N(C(=O)c2cc4cc([C@H]5CCOC(C)(C)C5)ccc4n2[C@@]2(c4noc(=O)[nH]4)C[C@@H]2C)CC32CCCCO2)cc(C)c1F` (stereo partly shown) [Compound 39], for which the EC50 on GLP-1R [1] is at most 0.02 µM. For `Cc1cc(-n2nc3c(c2-n2ccn(-c4ccc5c(cnn5C)c4F)c2=O)[C@H](C)N(C(=O)c2cn4cc(C5CCOC(C)(C)C5)ccc4c2C2(c4noc(=O)[nH]4)CC2)CC32CC2)cc(C)c1F` (stereo partly shown) [Compound 196], the EC50 at GLP-1R [1] was at most 0.02 µM. Turning to `Cc1cc(-n2nc3c(c2-n2ccn(-c4ccc5c(cnn5C)c4F)c2=O)[C@H](C)N(C(=O)c2cc4cc([C@H]5CCOC(C)(C)C5)ccc4n2[C@@]2(c4noc(=O)[nH]4)C[C@@H]2C)CC32CN(C)C2)cc(C)c1F` [Compound 164], at GLP-1R [1], the EC50 is at most 0.02 µM.

In the case of `Cc1cc(-n2nc3c(c2-n2ccn(-c4ccc5c(cnn5C)c4F)c2=O)[C@H](C)N(C(=O)c2cc4cc([C@H]5CCOC(C)(C)C5)ccc4n2[C@@]2(c4noc(=O)[nH]4)C[C@@H]2C)CC32CC(N)C2)cc(C)c1F` (stereo partly shown) [Compound 183], the EC50 at GLP-1R [1] is at most 0.02 µM.

Consider `Cc1cc(-n2nc3c(c2-n2ccn(-c4ccc5c(cnn5C)c4F)c2=O)[C@H](C)N(C(=O)c2cc4cc([C@H]5CCOC(C)(C)C5)ccc4n2[C@@]2(c4noc(=O)[nH]4)C[C@@H]2C)CC32CCC(F)CC2)cc(C)c1F` (stereo partly shown) [Compound 201], for which the EC50 on GLP-1R [1] was 0.02 to 0.1 µM.

As to `Cc1cc(-n2nc3c(c2-n2ccn(-c4ccc5c(cnn5C)c4F)c2=O)[C@H](C)N(C(=O)c2cc4cc([C@H]5CCOC(C)(C)C5)ccc4n2[C@@]2(c4noc(=O)[nH]4)C[C@@H]2C)CC32CCCN2)cc(C)c1F` (stereo partly shown) [Compound 31], the EC50 on GLP-1R [1] is at most 0.02 µM. Still for that read-out and setting: in the case of `C[C@H]1c2c(nn(-c3ccc(F)c(C4CC4)c3)c2-n2ccn(-c3ccc4c(cnn4C)c3F)c2=O)C2(CC2)CN1C(=O)c1cc2cc(C3CCOC(C)(C)C3)ccn2c1C1(c2noc(=O)[nH]2)CC1` (single isomer, unassigned) [Compound 186-B] it was 0.02 to 0.1 µM. As to `COC1CCC2(CC1)CN(C(=O)c1cc3cc([C@H]4CCOC(C)(C)C4)ccc3n1[C@@]1(c3noc(=O)[nH]3)C[C@@H]1C)[C@@H](C)c1c2nn(-c2cc(C)c(F)c(C)c2)c1-n1ccn(-c2ccc3c(cnn3C)c2F)c1=O` (stereo partly shown) [Compound 202], the EC50 at GLP-1R [1] is at most 0.02 µM. As to `CCn1ncc2c(F)c(-n3ccn(-c4c5c(nn4-c4cc(C)c(F)c(C)c4)C4(CC4)CN(C(=O)c4cc6cc([C@H]7CCOC(C)(C)C7)ccc6n4[C@@]4(c6noc(=O)[nH]6)C[C@@H]4C)[C@H]5C)c3=O)ccc21` [Compound 222], the EC50 at GLP-1R [1] was at most 0.02 µM. In the case of `COC(=O)N1CCC2(CC1)CN(C(=O)c1cc3cc([C@H]4CCOC(C)(C)C4)ccc3n1[C@@]1(c3noc(=O)[nH]3)C[C@@H]1C)[C@@H](C)c1c2nn(-c2cc(C)c(F)c(C)c2)c1-n1ccn(-c2ccc3c(cnn3C)c2F)c1=O` [Compound 159], the EC50 on GLP-1R [1] was at most 0.02 µM. In the case of `Cc1cc(-n2nc3c(c2-n2ccn(-c4ccc5c(ccn5C)c4F)c2=O)[C@H](C)N(C(=O)c2cc4cc([C@H]5CCOC(C)(C)C5)ccc4n2[C@@]2(c4noc(=O)[nH]4)C[C@@H]2C)CC32CCCNC2)cc(C)c1F` (single isomer, unassigned) [Compound 51-B], the EC50 at GLP-1R [1] was at most 0.02 µM. The same measure, in the same setting: in the case of `Cc1cc(-n2nc3c(c2-n2ccn(-c4ccc5c(cnn5C)c4F)c2=O)[C@H](C)N(C(=O)c2cc4cc(C5CCOC(C)(C)C5)ccn4c2C2(c4noc(=O)[nH]4)CC2)CC32CC2)cc(C)c1F` (single isomer, unassigned) [Compound 185-B] it was 0.02 to 0.1 µM. Consider `Cc1cc(-n2nc3c(c2-n2ccn(-c4ccc5c(cnn5C)c4F)c2=O)[C@H](C)N(C(=O)c2cc4cc([C@H]5CCOC(C)(C)C5)ccc4n2[C@@]2(c4noc(=O)[nH]4)C[C@@H]2C)CC32C[C@H]2C)cc(C)c1F` (stereo partly shown) [Compound 226], for which the EC50 on GLP-1R [1] is at most 0.02 µM. In data set [2], this compound gave an AUC(0-t) of 1480 ng·h/mL, a Cmax of 160 ng/mL and a half-life of 9.3 h. Consider `C=C1CC2(C1)CN(C(=O)c1cc3cc([C@H]4CCOC(C)(C)C4)ccc3n1[C@@]1(c3noc(=O)[nH]3)C[C@@H]1C)[C@@H](C)c1c2nn(-c2cc(C)c(F)c(C)c2)c1-n1ccn(-c2ccc3c(cnn3C)c2F)c1=O` [Compound 218], for which, at GLP-1R [1], the 50% effective concentration (EC50) was at most 0.02 µM. In data set [2], this compound gave an AUC(0-t) of 990 ng·h/mL, a Cmax of 110 ng/mL and a half-life of 11.6 h.

As to `C[C@H]1c2c(nn(-c3ccc(F)c(C4CC4)c3)c2-n2ccn(-c3ccc4c(cnn4C)c3F)c2=O)C2(CC2)CN1C(=O)c1cc2cc([C@H]3CCOC(C)(C)C3)ccc2n1C1(c2noc(=O)[nH]2)CC1` [Compound 170], on GLP-1R [1], the EC50 was at most 0.02 µM. In the case of `Cc1cc(-n2nc3c(c2-n2ccn(-c4ccc5c(cnn5C)c4F)c2=O)[C@H](C)N(C(=O)c2cc4cc([C@H]5CCOC(C)(C)C5)ccc4n2[C@@]2(c4noc(=O)[nH]4)C[C@@H]2C)CC32CCOCC2)cc(C)c1F` [Compound 43], the EC50 on GLP-1R [1] is at most 0.02 µM; on GLP-1R [3], at most 0.0001 µM.

Values taken from patent US12419874B2, “GLP-1R agonist compound and use thereof” (Chongqing Pharmaceutical Research Institute Co., Ltd., priority 2024, dated 2025).
